According to BindingDB's records for doi:10.1021/jm401292m (Mcgill University, 2014):

Test: Antagonist activity at OXE receptor (unknown origin) expressed in neutrophils assessed as inhibition of 5-oxo-ETE-induced cell migration after 2 hrs by hematoxylin/chromotrope 2R staining-based microscopic analysis

CCCCCCc1c(C(=O)CC(C)CC(=O)O)c2cc(Cl)ccc2n1C (stereo unspecified)
IC50: 0.454 µM
